Data from patent EP0888346B1, “CORALYNE ANALOGS AS TOPOISOMERASE INHIBITORS” (RUTGERS, THE STATE UNIVERSITY OF NEW JERSEY, priority 1996, dated 1997).
In brackets after ≈: the same amount, converted by molar mass. Like-named read-outs stand apart in the source and are kept apart here.

Columns and labels:
[1] = system: glioblastoma cell line SF-268; assay: MTA cytotoxicity assay, glioblastoma cells; type: cell-based; conditions: for IC50: Homo sapiens, SF-268, 96 h, read-out: Cytotoxicity SF-268
Description: (§1) The results were plotted and the IC50 then measured.
(§2) The coralyne analog 7c was tested for its effectiveness against glioblastoma cells. The assay used was similar to that described above for the RPMI-8402 cell line. The results are shown in table 2 below which compares the effect of Compound 7c against the leukemia cell line (RPMI 8402), epidermal carncinoma (KB3-1) and glioblastoma (SF-268): Table 2

[2] = system: calf thymus topoisomerase II; assay: Topo II cleavage assay (plasmid YEpG DNA); type: biochemical; conditions: concentration relative to VM-26 = 1 producing the same cleavage on the plasmid DNA
From the text: The plasmid pET11a and the E. coli strain BL21(DE3) used for enzyme expression were purchased from Novagen. IPTG was purchased from Sigma. The ECL system used for the Western blotting analysis of bacterial lysates was from Amersham (UK). All the restriction enzymes and Vent polymerase were from New England Biolabs. Mammalian topoisomerase II was isolated from calf thymus glands according to the published procedure (Halligan et al., J. Biol. Chem. 260:2475-2482 (1985)). The single copy yeast plasmids YCpGAL1 expressing various topoisomerase I genes in JN2-134 yeast strain were a kind gift of Dr. M-A. Bjornsti (Thomas Jefferson University, Philadelphia, PA). All bacterial and yeast media were from Difco (Detroit, MI), while cell culture media were purchased from Gibco-BRL (Gaithersburg, MD).
(§3) Cleavage assays for the recombinant topoisomerases I and calf thymus topoisomerases I and II were done as described (Liu et al., J. Biol. Chem. 258:15365-15370 (1983)). The plasmid YEpG DNA used for the cleavage assays was prepared and labeled at its 3'-end using the published procedures.

[3] = system: human epidermoid carcinoma KB 3-1 cell line; assay: MTA cytotoxicity assay, epidermoid carcinoma cells; type: cell-based; conditions: KB 3-1, 96 h
Description: as §1, §2

human topoisomerase I = target: T1, human topoisomerase I (Homo sapiens, UniProt P11387); assay: Topo I cleavage assay (plasmid YEpG DNA); type: biochemical; conditions: concentration relative to camptothecin (CPT) = 1 producing the same cleavage on the plasmid DNA
T1 construct: 15 amino acid vector-derived fusion (pET-11a leader); made in house; host or cells: E. coli BL21(DE3)
T1 sequence (P11387 1-765): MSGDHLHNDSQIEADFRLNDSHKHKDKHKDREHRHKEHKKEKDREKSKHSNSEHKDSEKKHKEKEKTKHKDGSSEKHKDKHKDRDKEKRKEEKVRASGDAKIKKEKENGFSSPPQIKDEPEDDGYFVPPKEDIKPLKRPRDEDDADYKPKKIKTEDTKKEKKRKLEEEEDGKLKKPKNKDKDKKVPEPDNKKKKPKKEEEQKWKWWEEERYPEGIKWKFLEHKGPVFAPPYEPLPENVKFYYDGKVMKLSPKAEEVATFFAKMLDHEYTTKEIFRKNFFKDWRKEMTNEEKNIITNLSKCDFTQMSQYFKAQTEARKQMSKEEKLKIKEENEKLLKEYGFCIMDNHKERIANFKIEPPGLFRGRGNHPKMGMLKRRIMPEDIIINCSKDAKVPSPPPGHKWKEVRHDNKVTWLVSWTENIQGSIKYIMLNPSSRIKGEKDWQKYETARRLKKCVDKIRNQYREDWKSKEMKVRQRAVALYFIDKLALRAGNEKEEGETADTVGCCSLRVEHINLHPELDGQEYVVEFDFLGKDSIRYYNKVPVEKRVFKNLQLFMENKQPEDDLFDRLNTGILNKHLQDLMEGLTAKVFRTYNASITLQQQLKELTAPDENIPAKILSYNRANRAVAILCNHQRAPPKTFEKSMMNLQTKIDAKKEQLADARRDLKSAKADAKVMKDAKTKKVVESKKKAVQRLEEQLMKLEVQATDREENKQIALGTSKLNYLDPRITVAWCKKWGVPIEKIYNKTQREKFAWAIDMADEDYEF
From the text: To obtain large quantity of human topoisomerase I, the human topoisomerase I cDNA was cloned into the pET-11a vector, in which transcription of the cDNA is under the control of the inducible T7 promoter (Studier et al., Methods in Enzymol., Vol. 185:60-89, San Diego: Academic Press (1990)). Briefly, a 3.4 kb DNA fragment containing the entire coding sequence of human topoisomerase I and approximately 1 kb of untranslated region downstream of the stop codon was isolated from the plasmid YCpGAL1-hTOP1 (Bjornsti et al., Cancer Res. 49:6318-6323 (1989)) by cutting at the BamHI and EcoRI sites. The vector pET-11a was cut with the same restriction enzymes, dephosphorylated and ligated to the insert in the proper reading-frame downstream of the vector cloning site. The ligation mixture was used to transform E. coli, the correct clone pET1B was isolated (see figure 2A for the map) and its identity confirmed by restriction mapping. Since the translational start in pET is positioned at an upstream NdeI site, the expressed topoisomerase I has a 15 amino acid fusion at its N-terminus. pET1B was then transformed into E. coli BL21(DE3), and, upon induction with 0.4 mM IPTG for 1 hour, the bacterial lysate was analyzed by 10 % SDS-PAGE. Expression was confirmed by Western blotting using rabbit antibodies against human topoisomerase I. Isolation of the expressed protein was done by a simple procedure. Briefly, E. coli cells were lysed by repeated sonic bursts. The sonic extract was made in 1 M NaCl and 6% polyethylene glycol (PEG) to remove nucleic acids. The PEG supernatant was chromatographed directly on a hydroxyapatite column. Expressed human DNA topoisomerase I was eluted at the 0.6 M potassium phosphate step. The eluted enzyme was dialyzed against 50% glycerol, 30 mM potassium phosphate (pH 7.0), 1 mM dithiothreitol (DTT) and 0.1 mM EDTA and stored at -20°C.
as §3

[4] = system: camptothecin-resistant CPT-K5 cells; assay: MTT-microtiter plate tetrazolinium cytotoxicity assay (MTA), camptothecin-resistant cells; conditions: Homo sapiens, CPT-K5, 96 h, read-out: Cytotoxicity IC50 CPT-K5
Description: The IC50 of the drugs tested were determined by the MTT-microtiter plate tetrazolinium cytotoxicity assay (MTA) (Mosmann, T., J. Immunol. Methods 65:55-63 (1983); Denizot et al., J. Immunol. Methods 89:271-277 (1986)). Human lymphoblast RPMI 8402 cells and their camptothecin-resistant CPT-K5 cells (Andoh et al., Proc. Natl. Acad. Sci., USA 84:5565-5569 (1987)) were kindly provided by Dr. Toshiwo Andoh (Aichi Cancer Center Research Institute, Nagoya, Japan). […] Cells (2000 cells/well, seeded in […] growth medium) were grown in suspension at 37°C in 5% CO2 and maintained by regular passage in RPMI medium supplemented with 10% heat inactivated fetal bovine serum, L-glutamine (2 mM), penicillin (100 U/ml), and streptomycin (0.1 mg/ml). The cells were exposed continuously for 4 days to different drug concentrations, and assayed at the end of the fourth day. Each concentration and the no drug control were repeated at least twice in 6 replica wells. The results were plotted and the IC50 then measured. The drug sensitive human epidermoid carcinoma KB 3-1 cell line and its vinblastine-selected multidrug-resistant variant KB-V1 cells (Akiyama et al., Genetics 11:117-126 (1985)) were kindly provided by Dr. Michael Gottesmann (National Cancer Institute). They were grown as monolayer cultures at 37°C in 5% CO2 and maintained by regular passage in Dulbecco's minimal essential medium supplemented with 10% heat inactivated fetal bovine serum. KB-V1 cells were maintained in the presence of […] vinblastine.

[5] = system: Human lymphoblast RPMI 8402 cells; assay: MTT-microtiter plate tetrazolinium cytotoxicity assay (MTA); type: cell-based; conditions: for IC50: Homo sapiens, RPMI 8402, 96 h
From the text: as §1

[6] = system: yeast cells expressing functional yeast topoisomerase I; assay: Yeast cytotoxicity assay, strain expressing wild-type yeast topo I; type: cell-based, S. cerevisiae; conditions: plates with 1 µM drug (camptothecin 0.5 µM), 3 days at 30°C
From the text: (§4) It has been established that yeast can survive when topoisomerase I function is obliterated, and that the topoisomerase I poisons only kill cells having a functional topoisomerase I (Bjornsti et al. Cancer Res. 49:6318-6323 (1989)).
(§5) The topoisomerase I-specific in vivo cytotoxicity assay was adapted from Knab et al. (Knab et al., J. Biol. Chem. 268:22322-22330 (1993)). In this system, various topo I genes cloned into the single copy yeast plasmid vector, YCpGAL1 (Knab et al., J. Biol. Chem. 268:22322-22330 (1993)), are expressed under the control of the GAL1 promoter in the JN2-134 strain of S. cerevisiae (MATa, rad52::LEU2, trp1, ade2-1,his7, ura3-52, isel, top1-1, leu2) (Bjornsti et al., Cancer Res. 49:6318-6323 (1989)). The topo I constructs in the vector are, respectively, the wild-type yeast topo I (YCpGAL-ScTOP1), a non-functional yeast topo I where the active site tyrosine-727 is mutated to a phenylalanine (YCpGAL1-Sctop1Y727F) (Knab et al., J. Biol. Chem. 268:22322-22330 (1993)), and the wild type human topoisomerase I (YCpGAL-hTOP1) (Bjornsti et al., Cancer Res. 49:6318-6323 (1989)). To qualitatively test the cytotoxicity and the topo I specificity of the drugs, yeast cells containing the specific plasmid were serially diluted (5-fold) and were grown in dropout medium supplemented with uracil and 2% galactose In addition, the plates contained: A: Control, no drug in the plate; B: Camptothecin (CPT), 0.5 µM; C: Coralyne, 1 µM; D: Methylenedioxy-dihydro-demethyl-coralyne (MDD-Coralyne), 1 µM, and E: Nitidine, 1 µM. The plates were grown for 3 days at 30°C to assess the lethal effect of the different compounds on the various topoisomerase I enzymes expressed in S. cerevisiae.and the drug being tested.

[7] = system: yeast cells expressing non-functional yeast topoisomerase I; assay: Yeast cytotoxicity assay, strain expressing non-functional yeast topo I; type: cell-based, S. cerevisiae; conditions: plates with 1 µM drug (camptothecin 0.5 µM), 3 days at 30°C
From the text: as §4, §5

[8] = system: yeast cells expressing human topoisomerase I; assay: Yeast cytotoxicity assay, strain expressing human topo I; type: cell-based, S. cerevisiae; conditions: plates with 1 µM drug (camptothecin 0.5 µM), 3 days at 30°C
From the text: as §4, §5

[9] = read-out: Cytotoxicity IC50 RPMI
[10] = read-out: Cytotoxicity RPMI 8402

| Topo I-mediated DNA cleavage (REC, Relative Effective Concentration) (human topoisomerase I) | Molecule | Topo II-mediated DNA cleavage (REC, Relative Effective Concentration) [2] | IC50 [4] [µM] | IC50 [5, 9] [µM] | further results |
| --- | --- | --- | --- | --- | --- |
| 10 | COc1cc2cc3[n+](c(C)c2cc1OC)CCc1c-3ccc2c1OCO2 [Compound 7c, 5,6-Dihydro-8-methyl-3,4-methylenedioxy-10,11-dimethoxydibenzo[a,g]quinolizinium acetosulfate] | 30 | 6.1 | 0.6 | cytotoxicity against glioblastoma cells (in words) [1]: exceptional cytotoxicity; IC50 [1]: 0.008 µg/mL; IC50 ([3]; read-out: Cytotoxicity KB3-1): 0.06 µg/mL; IC50 [5, 10]: 0.3 µg/mL |
| >1000 | COc1cc2cc3c4ccc(OC)c(OC)c4cc[n+]3cc2cc1OC.[Cl-] [Compound 10b, 3,4,10,11-Tetramethoxydibenzo[a,g]quinolizinium chloride] | 100 | 5.2 | 2.6 | – |
| 10 | COc1cc2cc3c4ccc5c(c4cc[n+]3cc2cc1OC)OCO5.[Cl-] [Compound 10c, 3,4-Methylenedioxy-10,11-dimethoxydibenzo[a,g]quinolizinium chloride] | 2 | 6.8 | 0.8 | – |
| 1000 | COc1cc2cc(-c3ccc4c(c3)OCO4)nc(C)c2cc1OC [Compound 12b, 6,7-Dimethoxy-1-methyl-3-(3,4-methylenedioxyphenyl)isoquinoline] | >1000 | 31 | 22 | – |
| >1000 | Cc1nc(-c2ccc(O)c(O)c2)cc2cc(O)c(O)cc12 [Compound 13, 6,7-Dihydroxy-1-methyl-3-(3,4-dihydroxyphenyl)isoquinoline] | >1000 | 99 | 7.1 | cytotoxicity against RPMI 8402 cells (in words) [5]: appreciable cytotoxicity |
| – | COc1cc2cc3c4cc(OC)c(OC)cc4cc[n+]3c(C)c2cc1OC [coralyne] | – | – | – | IC50 [1]: 0.1 µg/mL; IC50 ([3]; read-out: Cytotoxicity KB3-1): 0.9 µg/mL; cytotoxicity against yeast cells expressing functional yeast topoisomerase I (in words) [6]: resistant; IC50 [5, 10]: 3 µg/mL; cytotoxicity against yeast cells expressing non-functional yeast topoisomerase I (in words) [7]: no cytotoxicity; cytotoxicity against yeast cells expressing human topoisomerase I (in words) [8]: no cytotoxicity |
| – | COc1cccc2c1C(=O)c1c(O)c3c(c(O)c1C2=O)C[C@@](O)(C(=O)CO)C[C@@H]3O[C@H]1C[C@H](N)[C@H](O)[C@H](C)O1 [doxorubicine] | – | – | – | IC50 ([1]; glioblastoma, Table 2): 0.8 µg/mL (≈ 1.47 µM); IC50 ([3]; epidermal carcinoma, Table 2, read-out: Cytotoxicity KB3-1): 0.1 µg/mL (≈ 0.184 µM); IC50 ([5]; leukemia cell line, Table 2, read-out: Cytotoxicity RPMI 8402): 0.8 µg/mL |
| – | Methylenedioxy-dihydro-demethyl-coralyne [MDD-coralyne] | – | – | – | cytotoxicity against yeast cells expressing functional yeast topoisomerase I (in words) [6]: not cytotoxic; cytotoxicity against yeast cells expressing non-functional yeast topoisomerase I (in words) [7]: not cytotoxic; cytotoxicity against yeast cells expressing human topoisomerase I (in words) [8]: highly cytotoxic |

| Molecule | Topo I-mediated DNA cleavage (REC, Relative Effective Concentration) (human topoisomerase I) | Topo II-mediated DNA cleavage (REC, Relative Effective Concentration) [2] | IC50 [4] [µM] | IC50 [5, 9] [µM] | further results |
| --- | --- | --- | --- | --- | --- |
| COc1cc([C@@H]2c3cc4c(cc3[C@@H](O[C@@H]3O[C@@H]5CO[C@@H](c6cccs6)O[C@H]5[C@H](O)[C@H]3O)[C@H]3COC(=O)[C@H]23)OCO4)cc(OC)c1O [VM-26, reference compound] | >1000 | 1 | 0.5 | 0.3 | – |
